Source: patent US7342122B2, “Bisphosphonate complexes” (priority 2003, dated 2008)

Tests used:
A549 = assay: Cell growth inhibition, lung cancer cell line A549; format: cell-based
Protocol: (§1) KB cells were purchased from Human Science Research Resource Bank (Osaka, Japan). The cells were cultured in Earle's MEM (GIBCO BRL) containing 10% FBS (Bio Whittaker) at 37° C. under 5% CO2. After 24 hours the test compounds were added to the cells at the indicated concentrations. 72 hours later the cells were stained with tripan blue and counted manually. IC50 is calculated as the concentration (aqueous solution) of complex required to inhibit growth of cells by 50%.
(§2) In a similar fashion a representative number of examples of compounds of the invention were tested for their ability to inhibit the growth/proliferation of cell types representing a number of different cancers. The results are provided in Tables 4-13, below, which provide the Inhibition Constants (IC50, μM) for each compound across various cell lines.

MKN7 = assay: Cell growth inhibition, human stomach cancer MKN7; format: cell-based
Protocol: as §1, §2

NCI-H460 = assay: Cell growth inhibition, lung cancer cell line NCI-H460; format: cell-based
Protocol: as §1, §2

OVCAR-3 = assay: Cell growth inhibition, ovarian cancer cell line OVCAR-3; format: cell-based; settings: OVCAR-3, ovarian cancer cell line
Protocol: as §1, §2

SNB-78 = assay: Cell growth inhibition, brain cancer cell line SNB-78; format: cell-based; settings: SNB-78, brain cancer cell line
Protocol: as §1, §2

St-4 = assay: Cell growth inhibition, human stomach cancer St-4; format: cell-based; settings: St-4, human stomach cancer
Protocol: as §1, §2

OVCAR-5 = assay: Cell growth inhibition, ovarian cancer cell line OVCAR-5; format: cell-based; settings: OVCAR-5, ovarian cancer cell line
Protocol: as §1, §2

HCT-116 = assay: Cell growth inhibition, colon cancer cell line HCT-116; format: cell-based; settings: HCT-116, colon cancer cell line
Protocol: as §1, §2

OVCAR-4 = assay: Cell growth inhibition, ovarian cancer cell line OVCAR-4; format: cell-based; settings: OVCAR-4, ovarian cancer cell line
Protocol: as §1, §2

MKN74 = assay: Cell growth inhibition, human stomach cancer MKN74; format: cell-based
Protocol: as §1, §2

KB cells = assay: In vitro assay, cell growth inhibition (KB cells); format: cell-based; settings: 72 hours
Protocol: as §1

NCI-H23 = assay: Cell growth inhibition, lung cancer cell line NCI-H23; format: cell-based
Protocol: as §1, §2

U251 = assay: Cell growth inhibition, brain cancer cell line U251; format: cell-based
Protocol: as §1, §2

SNB-75 = assay: Cell growth inhibition, brain cancer cell line SNB-75; format: cell-based; settings: SNB-75, brain cancer cell line
Protocol: as §1, §2

MCF-7 = assay: Cell growth inhibition, breast cancer cell line MCF-7; format: cell-based; settings: MCF-7, breast cancer cell line
Protocol: as §1, §2

MDA-MB-231 = assay: Cell growth inhibition, breast cancer cell line MDA-MB-231; format: cell-based; settings: MDA-MB-231, breast cancer cell line
Protocol: as §1, §2

HBC-4 = assay: Cell growth inhibition, breast cancer cell line HBC-4; format: cell-based; settings: HBC-4, breast cancer cell line
Protocol: as §1, §2

DU-145 = assay: Cell growth inhibition, prostatic cancer DU-145; format: cell-based, human; settings: DU-145, prostatic cancer
Protocol: as §1, §2

MKN1 = assay: Cell growth inhibition, human stomach cancer MKN1; format: cell-based
Protocol: as §1, §2

DMS273 = assay: Cell growth inhibition, lung cancer cell line DMS273; format: cell-based
Protocol: as §1, §2

MKN45 = assay: Cell growth inhibition, human stomach cancer MKN45; format: cell-based
Protocol: as §1, §2

BSY-1 = assay: Cell growth inhibition, breast cancer cell line BSY-1; format: cell-based; settings: BSY-1, breast cancer cell line
Protocol: as §1, §2

SF-295 = assay: Cell growth inhibition, brain cancer cell line SF-295; format: cell-based; settings: SF-295, brain cancer cell line
Protocol: as §1, §2

[1] = system: all cell types (cancer cell lines of Tables 4-12); assay: Cell growth inhibition, mean over all cell types of the panel; format: cell-based; settings: mean over all cell lines of Tables 4-12
Protocol: as §1, §2

LOX-IMVI = assay: Cell growth inhibition, melanoma cell line LOX-IMVI; format: cell-based
Protocol: as §1, §2

ACHN = assay: Cell growth inhibition, renal cancer ACHN; format: cell-based
Protocol: as §1, §2

SF-539 = assay: Cell growth inhibition, brain cancer cell line SF-539; format: cell-based; settings: SF-539, brain cancer cell line
Protocol: as §1, §2

HCC2998 = assay: Cell growth inhibition, colon cancer cell line HCC2998; format: cell-based
Protocol: as §1, §2

SK-OV-3 = assay: Cell growth inhibition, ovarian cancer cell line SK-OV-3; format: cell-based; settings: SK-OV-3, ovarian cancer cell line
Protocol: as §1, §2

OVCAR-8 = assay: Cell growth inhibition, ovarian cancer cell line OVCAR-8; format: cell-based; settings: OVCAR-8, ovarian cancer cell line
Protocol: as §1, §2

NCI-H522 = assay: Cell growth inhibition, lung cancer cell line NCI-H522; format: cell-based
Protocol: as §1, §2

DMS114 = assay: Cell growth inhibition, lung cancer cell line DMS114; format: cell-based
Protocol: as §1, §2

RXF-631L = assay: Cell growth inhibition, renal cancer RXF-631L; format: cell-based
Protocol: as §1, §2

HBC-5 = assay: Cell growth inhibition, breast cancer cell line HBC-5; format: cell-based; settings: HBC-5, breast cancer cell line
Protocol: as §1, §2

NCI-H226 = assay: Cell growth inhibition, lung cancer cell line NCI-H226; format: cell-based
Protocol: as §1, §2

PC-3 = assay: Cell growth inhibition, prostatic cancer PC-3; format: cell-based; settings: PC-3, prostatic cancer
Protocol: as §1, §2

HT-29 = assay: Cell growth inhibition, colon cancer cell line HT-29; format: cell-based; settings: HT-29, colon cancer cell line
Protocol: as §1, §2

HCT-15 = assay: Cell growth inhibition, colon cancer cell line HCT-15; format: cell-based; settings: HCT-15, colon cancer cell line
Protocol: as §1, §2

SF-268 = assay: Cell growth inhibition, brain cancer cell line SF-268; format: cell-based; settings: SF-268, brain cancer cell line
Protocol: as §1, §2

KM-12 = assay: Cell growth inhibition, colon cancer cell line KM-12; format: cell-based; settings: KM-12, colon cancer cell line
Protocol: as §1, §2

MKN28 = assay: Cell growth inhibition, human stomach cancer MKN28; format: cell-based
Protocol: as §1, §2

log10 IC50 (M) (A549): -4.88
log10 IC50 (M) (MKN7): -5.04
log10 IC50 (M) (NCI-H460): -5.86
log10 IC50 (M) (OVCAR-3): -4.95
log10 IC50 (M) (SNB-78): -4.67
log10 IC50 (M) (St-4): -5.12
log10 IC50 (M) (OVCAR-5): -5.3
log10 IC50 (M) (HCT-116): -5.38
log10 IC50 (M) (OVCAR-4): -5.06
log10 IC50 (M) (MKN74): -5.33
IC50 (KB cells; concentration to inhibit growth of cells by 50%): 36 µM
log10 IC50 (M) (NCI-H23): -4.88
log10 IC50 (M) (U251): -5
log10 IC50 (M) (SNB-75): -5.16
log10 IC50 (M) (MCF-7): -5.28
log10 IC50 (M) (MDA-MB-231): -5.29
log10 IC50 (M) (HBC-4): -4.91
log10 IC50 (M) (DU-145): -5.1
log10 IC50 (M) (MKN1): -5.28
log10 IC50 (M) (DMS273): -5.24
log10 IC50 (M) (MKN45): -5.08
log10 IC50 (M) (BSY-1): -5.34
log10 IC50 (M) (SF-295): -5.31
log10 IC50 (M) [1]: -5.18
log10 IC50 (M) (LOX-IMVI): -5.15
log10 IC50 (M) (ACHN): -5.22
log10 IC50 (M) (SF-539): -5.36
log10 IC50 (M) (HCC2998): -5.54
log10 IC50 (M) (SK-OV-3): -5.1
log10 IC50 (M) (OVCAR-8): -5.13
log10 IC50 (M) (NCI-H522): -5.22
log10 IC50 (M) (DMS114): -5.28
log10 IC50 (M) (RXF-631L): -5.43
log10 IC50 (M) (HBC-5): -4.98
log10 IC50 (M) (NCI-H226): -5.41
log10 IC50 (M) (PC-3): -4.9
log10 IC50 (M) (HT-29): -5.25
log10 IC50 (M) (HCT-15): -5.14
log10 IC50 (M) (SF-268): -5.27
log10 IC50 (M) (KM-12): -5.22
log10 IC50 (M) (MKN28): -4.86
SMILES: [Cl-].[Cl-].c1cc[n+]2c(c1)-c1cccc[n+]1[Pd-2]21[NH2+]CC[NH+]1Cc1c2ccccc2cc2ccccc12 [Example 5, [Pd(bpy)(Aten)]Cl2]
KB cells remaining/growth in percent (Table 2, untitled) (KB cells; 1 μg/ml): 86.9%
KB cells remaining/growth in percent (Table 2, untitled) (KB cells; 3 μg/mL): 81.4%
KB cells remaining/growth in percent (Table 2, untitled) (KB cells; 10 μg/mL): 75.1%
KB cells remaining/growth in percent (Table 2, untitled) (KB cells; 30 μg/mL): 44.7%
KB cells remaining/growth in percent (Table 2, untitled) (KB cells; 100 μg/mL): 12.3%
